# Molecular target: T1, human PAH with the R408W mutation (Homo sapiens, UniProt P00439, R408W)
# T1 construct: expressed in transfected cells
# T1 sequence (P00439 1-452 R408W): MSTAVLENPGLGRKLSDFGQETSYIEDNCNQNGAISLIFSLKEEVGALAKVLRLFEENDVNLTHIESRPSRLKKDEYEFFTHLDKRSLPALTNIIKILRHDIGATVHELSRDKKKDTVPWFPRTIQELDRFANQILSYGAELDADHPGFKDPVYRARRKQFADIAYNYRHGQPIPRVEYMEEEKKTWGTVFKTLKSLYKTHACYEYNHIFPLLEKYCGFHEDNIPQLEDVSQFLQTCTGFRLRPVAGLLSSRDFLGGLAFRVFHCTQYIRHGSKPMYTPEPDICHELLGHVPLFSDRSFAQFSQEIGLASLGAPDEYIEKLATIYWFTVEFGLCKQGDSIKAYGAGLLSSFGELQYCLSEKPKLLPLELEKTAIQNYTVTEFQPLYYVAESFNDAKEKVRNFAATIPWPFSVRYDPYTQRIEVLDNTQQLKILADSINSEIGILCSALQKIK
# Assay: Cell Based Phenylalanine Flux Assay
# Conditions: A375 cells expressing human R408W PAH; 24 hrs compound incubation; 13C-Tyrosine by LC-MS; average where tested multiple times; read-out: AC50
row,AC50 [µM],SMILES
1,< 0.5,"CC(C)n1ncnc1C(=O)N1CCc2[nH]cnc2[C@H]1c1nc2c(F)cccc2s1 [Example 2039, (S)-(4-(4-fluorobenzo[d]thiazol-2-yl)-6,7-dihydro-1H-imidazo[4,5-c]pyridin-5(4H)-yl)(1-isopropyl-1H-1,2,4-triazol-5-yl)methanone]"
2,1 to 5,"CC(C)n1ncnc1C(=O)N1CCc2[nH]cnc2[C@@H]1c1nc2c(F)cccc2s1 [Example 2040, (R)-(4-(4-fluorobenzo[d]thiazol-2-yl)-6,7-dihydro-1H-imidazo[4,5-c]pyridin-5(4H)-yl)(1-isopropyl-1H-1,2,4-triazol-5-yl)methanone]"
3,< 0.5,"O=C(c1ocnc1CF)N1CCc2[nH]cnc2[C@H]1c1nc2c(F)cccc2s1 [Example 2041, (S)-(4-(4-fluorobenzo[d]thiazol-2-yl)-6,7-dihydro-1H-imidazo[4,5-c]pyridin-5(4H)-yl)(4-(fluoromethyl)oxazol-5-yl)methanone]"
4,1 to 5,"O=C(c1ocnc1CF)N1CCc2[nH]cnc2[C@@H]1c1nc2c(F)cccc2s1 [Example 2042, (R)-(4-(4-fluorobenzo[d]thiazol-2-yl)-6,7-dihydro-1H-imidazo[4,5-c]pyridin-5(4H)-yl)(4-(fluoromethyl)oxazol-5-yl)methanone]"
5,1 to 5,"CCn1cnnc1C(=O)N1CCc2[nH]cnc2[C@@H]1c1nc2c(F)cccc2s1 [Example 2043, (R)-(4-ethyl-4H-1,2,4-triazol-3-yl)(4-(4-fluorobenzo[d]thiazol-2-yl)-6,7-dihydro-1H-imidazo[4,5-c]pyridin-5(4H)-yl)methanone]"
6,0.5 to 1,CCn1cnnc1C(=O)N1CCc2[nH]cnc2[C@H]1c1nc2c(F)cccc2s1 [Example 2044]
7,0.5 to 1,"Nc1cc(C(=O)N2CCc3[nH]cnc3[C@H]2c2nc3c(F)cccc3s2)n(C(F)F)n1 [Example 2053, (S)-(3-amino-1-(difluoromethyl)-1H-pyrazol-5-yl)(4-(4-fluorobenzo[d]thiazol-2-yl)-6,7-dihydro-1H-imidazo[4,5-c]pyridin-5(4H)-yl)methanone]"
8,> 5,"Nc1cc(C(=O)N2CCc3[nH]cnc3[C@@H]2c2nc3c(F)cccc3s2)n(C(F)F)n1 [Example 2054, (R)-(3-amino-1-(difluoromethyl)-1H-pyrazol-5-yl)(4-(4-fluorobenzo[d]thiazol-2-yl)-6,7-dihydro-1H-imidazo[4,5-c]pyridin-5(4H)-yl)methanone]"
9,< 0.5,CC(C)(O)Cc1nc(C(F)F)c(C(=O)N2CCc3[nH]cnc3[C@H]2c2nc3c(F)cccc3s2)o1 [Example 2061]
10,1 to 5,"CC(C)(O)Cc1nc(C(F)F)c(C(=O)N2CCc3[nH]cnc3[C@@H]2c2nc3c(F)cccc3s2)o1 [Example 2062, (R)-(4-(difluoromethyl)-2-(2-hydroxy-2-methylpropyl)oxazol-5-yl)(4-(4-fluorobenzo[d]thiazol-2-yl)-6,7-dihydro-1H-imidazo[4,5-c]pyridin-5(4H)-yl)methanone]"
11,< 0.5,CC[C@H](O)c1nc(C(F)F)c(C(=O)N2CCc3[nH]cnc3[C@H]2c2nc3c(F)cccc3s2)o1 [Example 2063]

# The remaining lines, values behind:
row,SMILES,AC50 [µM]
1,"O=C(c1oc(N2CCOCC2)nc1Br)N1CCc2[nH]cnc2[C@@H]1c1nc2c(F)cccc2s1 [Example 2034, (R)-(4-bromo-2-morpholinooxazol-5-yl)(4-(4-fluorobenzo[d]thiazol-2-yl)-6,7-dihydro-1H-imidazo[4,5-c]pyridin-5(4H)-yl)methanone]",1 to 5
2,"O=C(c1cn[nH]c1Cl)N1CCc2[nH]cnc2[C@@H]1c1nc2ccccc2s1 [Example 2035, (R)-(4-(benzo[d]thiazol-2-yl)-6,7-dihydro-1H-imidazo[4,5-c]pyridin-5(4H)-yl)(5-chloro-1H-pyrazol-4-yl)methanone]",1 to 5
3,O=C(c1cn[nH]c1Cl)N1CCc2[nH]cnc2[C@H]1c1nc2ccccc2s1 [Example 2036],< 0.5
4,CC(C)n1ncnc1C(=O)N1CCc2[nH]cnc2[C@H]1c1nc2ccccc2s1 [Example 2037],< 0.5
5,"Cn1nc(C(C)(C)C#N)nc1C(=O)N1CCc2[nH]cnc2[C@H]1c1nc2ccccc2s1 [Example 2045, (S)-2-(5-(4-(benzo[d]thiazol-2-yl)-4,5,6,7-tetrahydro-1H-imidazo[4,5-c]pyridine-5-carbonyl)-1-methyl-1H-1,2,4-triazol-3-yl)-2-methylpropanenitrile]",1 to 5
6,"Cn1nc(C(C)(C)C#N)nc1C(=O)N1CCc2[nH]cnc2[C@@H]1c1nc2ccccc2s1 [Example 2046, (R)-2-(5-(4-(benzo[d]thiazol-2-yl)-4,5,6,7-tetrahydro-1H-imidazo[4,5-c]pyridine-5-carbonyl)-1-methyl-1H-1,2,4-triazol-3-yl)-2-methylpropanenitrile]",1 to 5
7,"Cn1nc(C(C)(C)C#N)nc1C(=O)N1CCc2[nH]cnc2[C@H]1c1nc2c(F)cccc2s1 [Example 2047, (S)-2-(5-(4-(4-fluorobenzo[d]thiazol-2-yl)-4,5,6,7-tetrahydro-1H-imidazo[4,5-c]pyridine-5-carbonyl)-1-methyl-1H-1,2,4-triazol-3-yl)-2-methylpropanenitrile]",0.5 to 1
8,"Cn1nc(C(C)(C)C#N)nc1C(=O)N1CCc2[nH]cnc2[C@@H]1c1nc2c(F)cccc2s1 [Example 2048, (R)-2-(5-(4-(4-fluorobenzo[d]thiazol-2-yl)-4,5,6,7-tetrahydro-1H-imidazo[4,5-c]pyridine-5-carbonyl)-1-methyl-1H-1,2,4-triazol-3-yl)-2-methylpropanenitrile]",1 to 5
9,"Cc1nc(C(C)(C)N(C)C)oc1C(=O)N1CCc2[nH]cnc2[C@H]1c1nc2c(F)cccc2s1 [Example 2049, (S)-(2-(2-(dimethylamino)propan-2-yl)-4-methyloxazol-5-yl)(4-(4-fluorobenzo[d]thiazol-2-yl)-6,7-dihydro-1H-imidazo[4,5-c]pyridin-5(4H)-yl)methanone]",1 to 5
10,"Cc1nc(C(C)(C)N(C)C)oc1C(=O)N1CCc2[nH]cnc2[C@@H]1c1nc2c(F)cccc2s1 [Example 2050, (R)-(2-(2-(dimethylamino)propan-2-yl)-4-methyloxazol-5-yl)(4-(4-fluorobenzo[d]thiazol-2-yl)-6,7-dihydro-1H-imidazo[4,5-c]pyridin-5(4H)-yl)methanone]",1 to 5
11,Nc1cc(C(=O)N2CCc3[nH]cnc3[C@H]2c2nc3ccccc3s2)n(C(F)F)n1 [Example 2051],< 0.5
12,"Nc1cc(C(=O)N2CCc3[nH]cnc3[C@@H]2c2nc3ccccc3s2)n(C(F)F)n1 [Example 2052, (R)-(3-amino-1-(difluoromethyl)-1H-pyrazol-5-yl)(4-(benzo[d]thiazol-2-yl)-6,7-dihydro-1H-imidazo[4,5-c]pyridin-5(4H)-yl)methanone]",1 to 5
13,O=C(c1oc(C2(O)CC2)nc1C(F)F)N1CCc2[nH]cnc2[C@H]1c1nc2ccccc2s1 [Example 2055],< 0.5
14,"O=C(c1oc(C2(O)CC2)nc1C(F)F)N1CCc2[nH]cnc2[C@@H]1c1nc2ccccc2s1 [Example 2056, (R)-(4-(benzo[d]thiazol-2-yl)-6,7-dihydro-1H-imidazo[4,5-c]pyridin-5(4H)-yl)(4-(difluoromethyl)-2-(1-hydroxycyclopropyl)oxazol-5-yl)methanone]",1 to 5

# From US20250171438A1 (Agios Pharmaceuticals, Inc., priority 2022, published 2025)
